Target: T1, Recombinant human liver cathepsin-B (Homo sapiens, UniProt P07858)
T1 construct: purchased Sigma Aldrich
Test: Cathepsin-B cleavage testing of peptide-AMC substrates
Assay type: biochemical
Settings: for AMC fluorescence intensity change over time following addition of catB: 1 mM peptide in activation buffer pH 5, emission 440 nm
Procedure: Peptide-AMC: Recombinant human liver cathepsin-B (Sigma Aldrich) was used for the in vitro experiments. 0.25 μM DTT used in 0.25 μM HEPES in PBS (pH 5) as activation buffer. Peptides were dissolved in activation buffer to a final concentration as 1 mM. 0.5 μL of catB enzyme or vehicle control was added into the peptide solution. Plate reader analysis with Tecan Infinite M200 PRO plate reader (Mannedorf, Switzerland) with triplicates of each sample were performed in 96 well plates. The intensity of the excited dye at 388 nm was measured at 440 nm. Dual dye-labeled peptide on resin: CatB and activation buffer were prepared as described above. Dye-labeled peptides were again left on the resin. Resin was washed with methanol, dried in a vacuum overnight, and then immersed in PBS (pH 7.4) for 1 hour at 37° C. PBS was then drained followed by addition of 1 mL activation buffer and 5 μL of catB for 100 mg of resin. Control testing was performed in the same solution without the addition of catB. Supernatant was collected after 3 hours and 24 hours. The florescence intensity of triplicates of each sample was measured with plate reader FAM (λexc=485 nm, λem=535 nm) and Tamra (λexc=520 nm, λem=620 nm).
A variety of enzyme-cleavable peptide sequences used in antibody-drug and peptide-drug conjugates were tested for efficacy in the systems herein (Ref. B35, B40-B43; incorporated by reference in their entireties).
The experimentally cleavable VC-PABA sequence and a control, non-cleavable triple glycine (GGG) linker, were conjugated to a 7-amino-4-methylcoumarin (AMC) dye, useful in studying protease activity and specificity (VC-PABA-AMC and GGG-AMC) (FIGS. 9A and 9B) (Ref. B45; incorporated by reference in its entirety). The electron group of the AMC fluorophore is localized, and thus remains quenched, when linked to the VC-PABA or GGG peptide substrate. When the covalent bond between the peptide and AMC is cleaved, this group de-localizes resulting in fluorescence detected at 440 nm (excitation: 348 nm) allowing for real-time measurement of enzyme/substrate kinetics. […]

## Glycine-Glycine-Glycine (GGG)-AMC [GGG-AMC, reference compound]
  AMC fluorescence intensity change over time following addition of catB: Neither GGG-AMC or GG-PABA-AMC showed any change in fluorophore intensity

## Valine-Citrulline-Para(aminobenzoicacid) (VC-PABA)-AMC [VC-PABA-AMC]
  AMC fluorescence intensity change over time following addition of catB: rapidly increased

## valine-citrulline [VC]
Comparison of linker sequences
  catB cleavage efficacy among tested enzyme-cleavable peptide sequences: fastest and most complete cleavage

From patent US20180066031A1, “ENZYMATICALLY-CLEAVABLE PEPTIDE AMPHIPHILES” (The University of Chicago, priority 2016, published 2018)
